In US20060122276A1, “Agent for inhibiting membrane virus reproduction, method for the production thereof, pharmaceutical composition and method for inhibiting viral infections” (priority 2003, published 2006):
Where two headings read alike, the source gives them in different places.

Experiments:
[1] = tested on: human embryo fibroblasts (M-21); test: Cytotoxic action on non-infected M-21 cells; type: cell-based; settings: 500 and 1000 μg/ml; 3-days follow-up
[2] = tested on: porcine embryo kidney cells (SPEV); test: Cytotoxic properties on SPEV cell culture; type: cell-based; settings: for Percentage of died cells on exposure with different concentrations of the preparation during 48 hours: SPEV
Method: Cultures of reinoculated porcine embryo kidney cells (SPEV), highly sensitive to the pathogenic action of HSV, obtained from “Narva” Company (Russia) were employed. These cultures were used in the form of a one day monolayer of cells, grown in 24-cell plastic plates. The cultures of SPEV cells were grown on medium 199 with 10% of fetal calf serum with addition of glutamine and antibiotics (100 U/ml).
For studying the antiviral activity of the preparation, the preparation was introduced in various concentrations into the SPEV cell cultures at the moment of infection and in 24 hours after the infection with hepatitis C virus on the cell in 24-cell plastic culture plates.

HIV-1 = settings: for Protection of MT-4 cells against viral cytopathic action of HIV-1: HIV-1 100 TCD50
Method: Cells Reinoculated humans lymphoblastoid cells MT-4 were used. […] The viability of the cells was determined from the color of a 0.4% solution of trypan blue.
Retrovir (azidothymidin) produced by GlaxoWellcome (Great Britain) was used as positive control.
The Antiviral activity of the preparations was investigated on a model of lymphoblastoid cells in a plastic 24-cell plate. The virus dose was 100 TCD50 (50% tissue cytopathic dose). […] The activity of the preparation was determined from the inhibition of the virus-induced cytopathic action (CPA) in the cell cultures and the virus antigen level in the culture fluid by immunoenzymatic analysis.

[3] = 0.25 μg/ml, HIV-1-infected lymphoblastoid cells, 5th day
[4] = 0.5 μg/ml, HIV-1-infected lymphoblastoid cells, 5th day
[5] = 1 μg/ml, 2 hrs of contact, washing off of cells No, 6th day
[6] = 1 μg/ml, 2 hrs of contact, washing off of cells Yes, 6th day
[7] = 1.0 μg/ml, HIV-1-infected lymphoblastoid cells, 5th day
[8] = 1 μg/ml, exposure 1 hr, washing off of cells Yes, 6th day
[9] = 1 μg/ml, exposure 2 hrs, washing off of cells Yes, 6th day
[10] = 1 μg/ml, exposure 24 hrs, washing off of cells Yes, 6th day
[11] = 1 μg/ml, exposure during the entire experiment, washing off of cells No, 6th day
[12] = 10 μg/ml, 2 hrs of contact, washing off of cells No, 6th day
[13] = 10 μg/ml, 2 hrs of contact, washing off of cells Yes, 6th day
[14] = 10 μg/ml, HIV-1-infected lymphoblastoid cells, 5th day
[15] = 10 μg/ml, exposure 2 hrs (first such line, r25), washing off of cells Yes, 6th day
[16] = 10 μg/ml, exposure 2 hrs (second such line, r29), washing off of cells Yes, 6th day
[17] = 10 μg/ml, exposure 24 hrs, washing off of cells Yes, 6th day
[18] = 10 μg/ml, exposure during the entire experiment, washing off of cells No, 6th day
[19] = 100 μg/ml, HIV-1-infected lymphoblastoid cells, 5th day
[20] = preparation 1 hr after infecting, HIV-1
[21] = preparation 2 hrs before infecting, HIV-1
[22] = preparation + virus simultaneously, HIV-1

Substance: sodium salt of fullerene-polyamino-caproic acid
- Cytodestructive action on non-infected M-21 cells [1]: has not revealed cytodestructive action
- Percentage of died cells on exposure with different concentrations of the preparation during 48 hours ([2]; 6.25 (in μg)): 0%
- Percentage of died cells on exposure with different concentrations of the preparation during 48 hours ([2]; 12.5 (in μg)): 0%
- Percentage of died cells on exposure with different concentrations of the preparation during 48 hours ([2]; 25 (in μg)): 0%
- Percentage of died cells on exposure with different concentrations of the preparation during 48 hours ([2]; 50 (in μg)): 0%
- Percentage of died cells on exposure with different concentrations of the preparation during 48 hours ([2]; 100 (in μg)): 0%
- Cytotoxic properties for SPEV cell cultures ([2]; concentration of up to 100 μg/ml): does not have cytotoxic properties
- CPE/syncytia, % (HIV-1; [3]): 50%
- Number of cells in 1 ml × 1000 (HIV-1; [3]): 1000 in 1 ml × 1000
- CPE/syncytia, % (HIV-1; [4]): 25%
- Number of cells in 1 ml × 1000 (HIV-1; [4]): 1299 in 1 ml × 1000
- CPE/syncytia, + (HIV-1; [5]): 0 +
- Number of cells × 10^3 ml (HIV-1; [5]): 2200 × 10^3 ml
- CPE/syncytia, + (HIV-1; 1 μg/ml, 2 hrs of contact, washing off of cells No, 8th day): 0 +
- CPE/syncytia, + (HIV-1; [6]): 2.5+
- Number of cells × 10^3 ml (HIV-1; [6]): 1700 × 10^3 ml
- CPE/syncytia, + (HIV-1; 1 μg/ml, 2 hrs of contact, washing off of cells Yes, 8th day): 3.5+
- Protection of MT-4 cells against viral cytopathic action of HIV-1 (HIV-1; 1 μg/ml): full protection
- Protection of MT-4 cells against viral cytopathic action of HIV-1 (HIV-1; 1 μg/ml, listed as sodium salt of fullerene-polyamino-propanoic acid): Full protection
- CPE/syncytia, % (HIV-1; [7]): 0%
- Number of cells in 1 ml × 1000 (HIV-1; [7]): 1466 in 1 ml × 1000
- CPE/syncytia, + (HIV-1; [8]): 0.5+
- Number of cells × 10^3 ml (HIV-1; [8]): 2000 × 10^3 ml
- CPE/syncytia, + (HIV-1; 1 μg/ml, exposure 1 hr, washing off of cells Yes, 8th day): 1.5+
- CPE/syncytia, + (HIV-1; [9]): 0.5+
- Number of cells × 10^3 ml (HIV-1; [9]): 1700 × 10^3 ml
- CPE/syncytia, + (HIV-1; 1 μg/ml, exposure 2 hrs, washing off of cells Yes, 8th day): 1+
- CPE/syncytia, + (HIV-1; [10]): 0.1+
- Number of cells × 10^3 ml (HIV-1; [10]): 2100 × 10^3 ml
- CPE/syncytia, + (HIV-1; 1 μg/ml, exposure 24 hrs, washing off of cells Yes, 8th day): 0.5+
- CPE/syncytia, + (HIV-1; [11]): 0 +
- Number of cells × 10^3 ml (HIV-1; [11]): 2300 × 10^3 ml
- CPE/syncytia, + (HIV-1; 1 μg/ml, exposure during the entire experiment, washing off of cells No, 8th day): 0 +
- CPE/syncytia, + (HIV-1; [12]): 0 +
- Number of cells × 10^3 ml (HIV-1; [12]): 2600 × 10^3 ml
- CPE/syncytia, + (HIV-1; 10 μg/ml, 2 hrs of contact, washing off of cells No, 8th day): 0 +
- CPE/syncytia, + (HIV-1; [13]): 1.75+
- Number of cells × 10^3 ml (HIV-1; [13]): 1500 × 10^3 ml
- CPE/syncytia, + (HIV-1; 10 μg/ml, 2 hrs of contact, washing off of cells Yes, 8th day): 3.0+
- CPE/syncytia, % (HIV-1; [14]): 0%
- Number of cells in 1 ml × 1000 (HIV-1; [14]): 1633 in 1 ml × 1000
- CPE/syncytia, + (HIV-1; [15]): 0 +
- Number of cells × 10^3 ml (HIV-1; [15]): 2300 × 10^3 ml
- CPE/syncytia, + (HIV-1; 10 μg/ml, exposure 2 hrs (first such line, r25), washing off of cells Yes, 8th day): 0 +
- CPE/syncytia, + (HIV-1; [16]): 0 +
- Number of cells × 10^3 ml (HIV-1; [16]): 1800 × 10^3 ml
- CPE/syncytia, + (HIV-1; 10 μg/ml, exposure 2 hrs (second such line, r29), washing off of cells Yes, 8th day): 0 +
- CPE/syncytia, + (HIV-1; [17]): 0 +
- Number of cells × 10^3 ml (HIV-1; [17]): 2300 × 10^3 ml
- CPE/syncytia, + (HIV-1; 10 μg/ml, exposure 24 hrs, washing off of cells Yes, 8th day): 0 +
- CPE/syncytia, + (HIV-1; [18]): 0 +
- Number of cells × 10^3 ml (HIV-1; [18]): 2500 × 10^3 ml
- CPE/syncytia, + (HIV-1; 10 μg/ml, exposure during the entire experiment, washing off of cells No, 8th day): 0 +
- CPE/syncytia, % (HIV-1; [19]): 0%
- Number of cells in 1 ml × 1000 (HIV-1; [19]): 1500 in 1 ml × 1000
- CPE/syncytia, % (HIV-1; [20]): 0%
- Number of cells in 1 ml × 1000 (HIV-1; [20]): 1100 in 1 ml × 1000
- CPE/syncytia, % (HIV-1; [21]): 0%
- Number of cells in 1 ml × 1000 (HIV-1; [21]): 1100 in 1 ml × 1000
- CPE/syncytia, % (HIV-1; [22]): 0%
- Number of cells in 1 ml × 1000 (HIV-1; [22]): 1100 in 1 ml × 1000
